This is an account of results in patent publication US20250255809A1, “OPHTHALMIC PHARMACEUTICAL COMPOSITIONS OF ROFLUMILAST” (Iolyx Therapeutics, Inc., priority 2021, published 2025).

Data set [1] in a line: Impact of dry heat sterilization on particle size of bulk roflumilast API. It is filed as physicochemical. Conditions: bulk API dried at 137° C. for 20 hours. The method, then:
The impact of dry heat sterilization on roflumilast was assessed. Bulk API of roflumilast was dried at 137° C. for 20 hours. The particle size of the roflumilast was measured. FIG. 14 provides a particle size distribution plot for the bulk API after dry heat sterilization.

The conditions of data set [2]: as reported from the API manufacturer; cited from earlier work.

Turning to `O=C(Nc1c(Cl)cncc1Cl)c1ccc(OC(F)F)c(OCC2CC2)c1` [Roflumilast, N-(3,5-dichloropyrid-4-yl)-3-cyclopropylmethoxy-4-difluoromethoxybenzamide], in data set [1], the “impact of dry heat sterilization on particle size distribution” value is reported as “does not significantly impact the particle size distribution”. For the same compound, the “D90 of the API” value in data set [2] was “approximately 10 μm”.
